In patent publication US11981951B2, “Process for the production of methyl methacrylate” (Mitsubishi Chemical UK Limited, priority 2016, dated 2024):
≈ marks a conversion by molar mass, not a printed value. Read-outs that look alike come from different tables or passages of the source.

Legend:
[1] = logPo/w (1-octanol/water partition coefficient); type: physicochemical
Description: In embodiments, the organic solvent has a logPo/w value of greater than or equal to 3.0. More preferably, the organic solvent has a logPo/w value of greater than or equal to 3.6, 3.7, 3.8, 3.9 or 4.0. logPo/w is defined as the logarithm of the partition coefficient of a particular solvent between a standardized 1:1 mixture of 1-octanol and water. The present inventors have shown that, with increasing logPo/w value there is a decrease in the resultant microorganism toxicity. Particularly preferred solvents are higher alkanes of C6 and above which may be linear or branched, cyclic alkanes of C7 and above and aromatic compounds, particularly benzene, substituted with one or more substituents of C3 and above, particularly alkyl substituents which may be linear or branched.

[2] = system: E. coli strain MG1655; experiment: Growth inhibition (methacrylate ester toxicity) test, E. coli; type: cell-based; conditions: Escherichia coli
[3] = system: S. cerevisiae strain DSM70449; experiment: Growth inhibition (methacrylate ester toxicity) test, S. cerevisiae; type: cell-based; conditions: Saccharomyces cerevisiae, read-out: IC50 range
[4] = Extraction of BMA and MMA from biotransformation medium into dodecane (GC-FID); type: physicochemical; conditions: for average amount extracted into dodecane: across all samples
Method: The samples from the BMA/MMA extraction experiments were analysed using gas chromatography under the following operating conditions:
Biomass was harvested from each flask and a separate biotransformation conducted. BMA and MMA levels in dodecane following solvent extraction was quantified by gas chromatography flame ionization detector (GC-FID).
In a 1 I baffled shake flask, a starter culture of 200 ml LB medium containing 200 µg/ml ampicillin was grown for 16.33 hours. The culture was back diluted to OD600 0.2 into 5 1 I baffled shake flasks containing 300 ml fresh LB medium and left to grow at 30° C. and 250 rpm for 23.35 hours. The biomass was then harvested by centrifugation at 5000 rpm and 4° C. for 15 minutes. Each cell pellet was washed with 100 mM sodium phosphate (pH 6.7) and the centrifugation step was repeated. The biomass was resuspended in the required volume of biotransformation medium until an OD600 of 25 was reached.
Biotransformation reactions were conducted in 5×250 ml sealed Schott bottles at 30° C. and 180 rpm for 24 hours.
Samples were taken for GC-FID analysis at 5 hour and 24 hour time points. At each time point 5 ml sample was removed and transferred to a 15 ml falcon tube. Acetonitrile (5 ml) was added in addition to dodecane (1 ml). The mixture was vigorously shaken at >800 rpm for 10 minutes before centrifugation at 3900 rpm and 20° C. for 20 minutes. A 500 μl sample was taken from both the organic and aqueous phases, filtered through a 0.45 μm filter and placed in a crimped lid gas chromatography vial prior to injection.
Quantification of BMA and MMA levels in biotransformation samples was achieved by using external standard calibration […] obtained by preparing volumetric stock solutions of BMA and MMA at known concentrations.

[5] = Solubility limit in the fermentation medium; type: physicochemical; conditions: plasma or biological fluid
Method: In embodiments where the C3-C12 methacrylate ester is butyl methacrylate, it is particularly preferred that the titre of butyl methacrylate in the fermentation medium is at least 120, 130, 140, 150 or 200 mg/l. […] At such a concentration, the need for an additional extraction solvent may be negated.

[6] = MG1655, E. coli grown in MSX medium, from final biomass concentrations, read-out: IC50 range
[7] = E. coli MG1655 in LB complex medium, final biomass after 72 hours, concentration that halves MaxOD600, read-out: IC50 range
[8] = S. cerevisiae DSM70449 in YEPD complex medium, final biomass after 72 hours, concentration that halves MaxOD600

C=C(C)C(=O)OC(C)C [iPMA, isopropyl methacrylate]
logPo/w [1]: 1.81
IC50 [2, 6]: 1180 to 1770 µg/mL (≈ 9.21 to 13.8 mM)
IC50 [2, 7]: 1180 to 1770 µg/mL (≈ 9.21 to 13.8 mM)
IC50 [3, 8]: 660 to 990 µg/mL (≈ 5.15 to 7.72 mM)

C=C(C)C(=O)OC [MMA, methyl methacrylate]
logPo/w ([1]; 1-octanol/water (1:1)): 0.95
IC50 ([2]; MG1655, 72 h, read-out: IC50 range): 3190 to 4250 µg/mL (≈ 31.9 to 42.5 mM)
IC50 ([2]; MG1655, read-out: IC50 range): 3190 to 4250 µg/mL (≈ 31.9 to 42.5 mM)
average amount extracted into dodecane [4]: ~10.5%
IC50 ([3]; DSM70449, 72 h): 730 to 1450 µg/mL (≈ 7.29 to 14.5 mM)

C=C(C)C(=O)OCCCC [BMA, butyl methacrylate]
logPo/w ([1]; 1-octanol/water (1:1)): 2.57
IC50 [2, 6]: 70 to 110 µg/mL (≈ 0.492 to 0.774 mM)
IC50 [2, 7]: 70 to 110 µg/mL (≈ 0.492 to 0.774 mM)
average amount extracted into dodecane [4]: around 35.6%
extraction efficiency into dodecane compared to MMA ([4]; biotransformations 2 and 3 (40 mg/l added)): 2.7 ×
extraction efficiency into dodecane compared to MMA ([4]; biotransformations 4 and 5 (100 mg/l added)): 3.3 ×
solubility [5]: ~220 µg/mL (≈ 1.55 mM)
IC50 [3, 8]: 40 to 70 µg/mL (≈ 0.281 to 0.492 mM)
